Read-outs that look alike come from different tables or passages of the source.
Experiments:
S1P3 = S1P3 (Homo sapiens (Human), UniProt Q99500); experiment: S1P3 agonist assay (Ec50 S1P3Ag); format: cell-based; settings: read-out: Ec 50 (S1P3Ag)
S1P1 = S1P1 (Homo sapiens (Human), UniProt P21453); experiment: S1P1 agonist assay (Ec50 S1P1Ag); format: cell-based
Source text: The exact dosage will depend upon the activity of the compound, mode of administration, on the therapy desired, form in which administered, the subject to be treated and the body weight of the subject to be treated, and the preference and experience of the physician or veterinarian in charge. S1P1 agonist bioactivity of the compounds of the invention can be determined by use of an in vitro assay system which measures the activation of S1P1, which can be expressed as EC50 values, as are well known in the art inhibitors of the invention can be determined by the method described in the Examples.

Sequence of S1P3 (Q99500 whole entry, species assumed): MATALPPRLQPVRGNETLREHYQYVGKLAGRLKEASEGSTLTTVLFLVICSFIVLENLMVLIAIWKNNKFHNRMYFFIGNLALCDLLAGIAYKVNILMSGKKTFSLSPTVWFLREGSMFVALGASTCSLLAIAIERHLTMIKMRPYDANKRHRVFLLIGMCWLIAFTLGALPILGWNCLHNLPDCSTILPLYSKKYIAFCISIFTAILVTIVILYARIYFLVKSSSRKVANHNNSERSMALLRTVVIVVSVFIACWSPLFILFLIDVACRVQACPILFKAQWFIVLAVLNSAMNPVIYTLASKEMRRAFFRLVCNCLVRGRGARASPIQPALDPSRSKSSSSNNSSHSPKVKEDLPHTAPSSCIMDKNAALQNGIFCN
Sequence of S1P1 (P21453 whole entry): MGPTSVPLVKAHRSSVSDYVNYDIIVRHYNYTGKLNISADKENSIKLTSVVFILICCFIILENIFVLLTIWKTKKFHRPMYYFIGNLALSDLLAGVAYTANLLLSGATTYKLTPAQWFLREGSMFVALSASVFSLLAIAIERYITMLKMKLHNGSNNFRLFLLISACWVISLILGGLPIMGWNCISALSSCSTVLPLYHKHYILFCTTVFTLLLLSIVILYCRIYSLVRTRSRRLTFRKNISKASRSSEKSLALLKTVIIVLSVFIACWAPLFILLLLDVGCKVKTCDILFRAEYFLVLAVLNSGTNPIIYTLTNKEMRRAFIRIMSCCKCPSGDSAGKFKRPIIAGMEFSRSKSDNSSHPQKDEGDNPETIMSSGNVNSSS

Molecule: CCOc1ccc(-c2nc(-c3cccc4c3CCN4C)no2)cc1OCC [Compound 151]
- EC50 (S1P3): 2.4 µM
- EC50 (S1P1): 0.0059 µM

Molecule: COc1ccc(-c2nc(-c3ccncc3)no2)cc1OC1CCCC1 [Compound 54]
- EC50 (S1P3): 0.322 µM
- EC50 (S1P1): 0.0716 µM

Molecule: CCOc1ccc(-c2nc(-c3ccc(CN(C)C)c(C)c3)no2)cc1OCC [Compound 203]
- EC50 (S1P3; unit μM): 10 µM
- EC50 (S1P1): 0.0122 µM

Molecule: FC(F)(F)c1ccc(-c2noc(-c3ccnc(Cl)c3)n2)cc1 [Compound 7]
- EC50 (S1P3): 0.782 µM
- EC50 (S1P1): 0.27 µM

Molecule: CCOc1ccc(-c2nc(-c3cccc(CN(C)C)c3C)no2)cc1OCC [Compound 129]
- EC50 (S1P3): 5.2 µM
- EC50 (S1P1): 0.0041 µM

Molecule: CCOc1ccc(-c2nc(-c3ccncc3)no2)cc1OCC [Compound 35]
- EC50 (S1P3): 0.661 µM
- EC50 (S1P1): 0.0037 µM

Molecule: CCOc1ccc(-c2nc(-c3cccc(CO)c3)no2)cc1OCC [Compound 187]
- EC50 (S1P3): 1.5 µM
- EC50 (S1P1): 0.007 µM

Molecule: FC(F)(F)c1cc(Br)cc(-c2nc(-c3ccncc3)no2)c1 [Compound 106]
- EC50 (S1P3): 8 µM
- EC50 (S1P1): 0.063 µM

Molecule: CC(C)Cc1ccc(C(C)c2nc(-c3ccncc3)no2)cc1 (stereo not shown) [Compound 55]
- EC50 (S1P3): 0.448 µM
- EC50 (S1P1): 0.113 µM

Molecule: CCOc1ccc(-c2nc(-c3cncc(C)c3)no2)cc1OCC [Compound 58]
- EC50 (S1P3): 3.4 µM
- EC50 (S1P1): 0.0117 µM

Molecule: CCOc1ccc(-c2nc(-c3ccc(CO)cc3)no2)cc1OCC [Compound 186]
- EC50 (S1P3): 0.606 µM
- EC50 (S1P1): 0.0042 µM

Molecule: COc1cc(-c2noc(-c3ccnc(C)c3)n2)ccc1C [Compound 23]
- EC50 (S1P3): 3.5 µM
- EC50 (S1P1): 3.3 µM

Molecule: Cc1cnccc1-c1noc(-c2ccc(-c3ccccc3)c(C(F)(F)F)c2)n1 [Compound 60]
- EC50 (S1P3): 0.803 µM
- EC50 (S1P1): 0.001 µM

Molecule: FC(F)(F)c1cc(-c2nc(-c3ccncc3)no2)cc(C(F)(F)F)c1 [Compound 104]
- EC50 (S1P3): 3.5 µM
- EC50 (S1P1): 0.264 µM

Molecule: CCOc1ccc(-c2nc(-c3ccnc4[nH]ccc34)no2)cc1OCC [Compound 167]
- EC50 (S1P3): 2.2 µM
- EC50 (S1P1): 0.0022 µM

Molecule: CCOc1ccc(-c2nc(-c3ccc(C)c(C)c3)no2)cc1OCC [Compound 184]
- EC50 (S1P3): 2 µM
- EC50 (S1P1): 0.0117 µM

Molecule: CCOc1ccc(-c2nc(-c3cccc4[nH]ccc34)no2)cc1OCC [Compound 110]
- EC50 (S1P3): 0.823 µM
- EC50 (S1P1): 0.00052 µM

Molecule: CCOc1ccc(-c2nc(-c3cccc4c3CCC4N3CC[C@@H](O)C3)no2)cc1OCC (stereo partly shown) [Compound 228]
- EC50 (S1P3): 2.9 µM
- EC50 (S1P1): 0.0178 µM

Molecule: CCOc1ccc(-c2nc(-c3cccc(CO)c3C)no2)cc1OCC [Compound 177]
- EC50 (S1P3): 0.774 µM
- EC50 (S1P1): 0.0008 µM

Molecule: CCOc1ccc(-c2nc(-c3cccc(CNCCO)c3C)no2)cc1OCC [Compound 251]
- EC50 (S1P3): 0.692 µM
- EC50 (S1P1): 0.0034 µM

Molecule: CCOc1ccc(-c2nc(-c3ccnc(CO)c3)no2)cc1OCC [Compound 209]
- EC50 (S1P3): 0.938 µM
- EC50 (S1P1): 0.00014 µM

Molecule: CCOc1ccc(-c2nc(-c3ccc(CO)cc3C)no2)cc1OCC [Compound 201]
- EC50 (S1P3): 0.716 µM
- EC50 (S1P1): 0.0005 µM

Molecule: Nc1cc(-c2noc(-c3ccc(-c4ccccc4)c(C(F)(F)F)c3)n2)ccn1 [Compound 61]
- EC50 (S1P3): 1.32 µM
- EC50 (S1P1): 0.00078 µM

Molecule: CCOc1ccc(-c2nc(-c3cccc4c3CCN4)no2)cc1OCC [Compound 123]
- EC50 (S1P3): 0.529 µM
- EC50 (S1P1): 0.0002 µM

Molecule: CC(C)(C)c1cc(-c2nc(-c3ccncc3)no2)cc(C(C)(C)C)c1 [Compound 53]
- EC50 (S1P3): 0.327 µM
- EC50 (S1P1): 0.156 µM

Molecule: CCOc1cc(-c2nc(-c3ccncc3)no2)ccc1OC [Compound 50]
- EC50 (S1P3): 2.7 µM
- EC50 (S1P1): 0.064 µM

Molecule: CCOc1ccc(-c2nc(-c3cccc4ccccc34)no2)cc1OCC [Compound 211]
- EC50 (S1P3; unit μM): 13.5 µM
- EC50 (S1P1): 0.0272 µM

Molecule: CCOc1ccc(-c2nc(-c3ccc(CO)nc3)no2)cc1OCC [Compound 214]
- EC50 (S1P3; unit μM): 13.5 µM
- EC50 (S1P1): 0.0159 µM

Molecule: CCCOc1ccc(-c2nc(-c3ccncc3)no2)cc1 [Compound 10]
- EC50 (S1P3): 3.33 µM
- EC50 (S1P1): 0.246 µM

Molecule: 4-(5-(4-isopropoxy-3-(trifluoromethyl)phenyl)-1,2,4-oxadiazol-3-yl)-2,3-dihydro-1H-inden-1-ol [Compound 261]
- EC50 (S1P1): < 0.0005 µM

Molecule: CCOc1ccc(-c2nc(-c3cccc4[nH]cc(CN5CC[C@@H](O)C5)c34)no2)cc1OCC [Compound 231]
- EC50 (S1P1): 0.12 µM

Molecule: COc1cc(-c2noc(-c3ccncc3)n2)ccc1C [Compound 44]
- EC50 (S1P1): 0.731 µM

Molecule: CCOc1ccc(-c2nc(-c3ccc4cc[nH]c4c3)no2)cc1OCC [Compound 124]
- EC50 (S1P1): 0.003 µM

Molecule: CCOc1ccc(-c2nc(-c3ccc(OC(F)(F)F)cc3)no2)cc1OCC [Compound 206]
- EC50 (S1P1): > 5 µM

Molecule: CCOc1ccc(-c2nc(-c3ccc4[nH]cc(CNCCN(CC)CC)c4c3)no2)cc1OCC [Compound 224]
- EC50 (S1P1): 0.485 µM

Molecule: COc1cc(-c2noc(Cc3ccncc3)n2)ccc1C [Compound 42]
- EC50 (S1P1): 0.909 µM

Molecule: CCOc1ccc(-c2nc(-c3ccc(CN(C)C)cc3C)no2)cc1OCC [Compound 128]
- EC50 (S1P1): 0.0191 µM

Molecule: COc1cc(-c2nc(-c3ccc(S(N)(=O)=O)cc3)no2)ccn1 [Compound 19]
- EC50 (S1P1; unit μM/uM): 12 µM

Molecule: CCOc1ccc(-c2nc(-c3cncc(C(=O)OC)c3)no2)cc1OCC [Compound 220]
- EC50 (S1P1): 0.028 µM

Molecule: CCn1nc(C)cc1-c1nc(-c2ccncc2)no1 [Compound 57]
- EC50 (S1P1): 0.29 µM

Molecule: CCOc1ccc(-c2nc(-c3cccc(CN4CCCC4)c3)no2)cc1OCC [Compound 77]
- EC50 (S1P1): 0.45 µM

Molecule: CCOc1ccc(-c2nc(-c3ccc(C#N)cc3C)no2)cc1OCC [Compound 122]
- EC50 (S1P1): 0.005 µM

Molecule: CCOc1cccc(-c2nc(-c3cncc(C)c3)no2)c1 [Compound 66]
- EC50 (S1P1): 1.99 µM

Molecule: CCOc1ccc(-c2nc(-c3ccc4c(c3)NC(=O)C4)no2)cc1OCC [Compound 155]
- EC50 (S1P1): 0.0017 µM

Molecule: CCOc1ccc(-c2nc(-c3ccc4[nH]cc(CNCCN(C)C)c4c3)no2)cc1OCC [Compound 238]
- EC50 (S1P1): 0.686 µM

Molecule: FC(F)(F)c1cc(-c2nc(-c3ccc(CN4CCCC4)cc3)no2)ccc1-c1ccccc1 [Compound 82]
- EC50 (S1P1): 0.048 µM

Molecule: CCOc1ccc(-c2nc(-c3cccc4c3CCC4NC(C)(C)CO)no2)cc1OCC (stereo not shown) [Compound 216]
- EC50 (S1P1): 0.0915 µM

Molecule: CCn1nc(C)cc1-c1nc(-c2ccc(C)c(OC)c2)no1 [Compound 48]
- EC50 (S1P1): 0.295 µM

Molecule: CCOc1ccc(-c2nnc(-c3ccncc3)[nH]2)cc1OCC [Compound 93]
- EC50 (S1P1): 2.8 µM

Molecule: CCOc1ccc(-c2nc(-c3cccc(N)c3C)no2)cc1OCC [Compound 165]
- EC50 (S1P1): 0.0294 µM

Molecule: Fc1cc(-c2nc(-c3ccc(C(F)(F)F)cc3)no2)ccn1 [Compound 6]
- EC50 (S1P1; unit μM/uM): 4.1 µM

Molecule: CC(C)Oc1ccc(-c2ncc(-c3cccc4c3CCC4NCCO)o2)cc1C#N (stereo not shown) [Compound 271]
- EC50 (S1P1): < 0.0005 µM

Molecule: Cc1ccc(-c2nc(-c3ccncc3)no2)cc1C(F)(F)F [Compound 49]
- EC50 (S1P1): 0.487 µM

Molecule: CCOc1ccc(-c2nc(-c3cncc(CO)c3)no2)cc1OCC [Compound 225]
- EC50 (S1P1): 0.0245 µM

Molecule: CCOc1ccc(-c2nc(-c3cc4ccccc4cn3)no2)cc1OCC [Compound 208]
- EC50 (S1P1): 0.154 µM

Molecule: CCOc1ccc(-c2nc(-c3ccc(C4=NCCN4)cc3)no2)cc1OCC [Compound 181]
- EC50 (S1P1): 0.733 µM

Molecule: CCOc1ccc(-c2nc(-c3ccc4c(c3)NCC4)no2)cc1OCC [Compound 150]
- EC50 (S1P1): 0.0042 µM

Molecule: CCOc1ccc(-c2noc(-c3ccncc3)n2)cc1OCC [Compound 257]
- EC50 (S1P1): 0.0073 µM

Molecule: CCOc1ccc(-c2nc(-c3cccc4c3CCC4O)no2)cc1[N+](=O)[O-] (stereo not shown) [Compound 266, 4-(5-(4-ethoxy-3-nitrophenyl)-1,2,4-oxadiazol-3-yl)-2,3-dihydro-1H-inden-1-ol]
- EC50 (S1P1): 0.224 µM

From patent US10544136B2, “Modulators of sphingosine phosphate receptors” (The Scripps Research Institute, priority 2008, dated 2020)
